Results taken from publication PMC5363571 (Oncotarget, 2016).
Counter-ions that a name gives are not always drawn.

target: USP2 (Homo sapiens, UniProt O75604); test: in vitro deubiquitinase activity assay (Supplementary Figure S1); assay type: biochemical; conditions: not given
Sequence (O75604 whole entry): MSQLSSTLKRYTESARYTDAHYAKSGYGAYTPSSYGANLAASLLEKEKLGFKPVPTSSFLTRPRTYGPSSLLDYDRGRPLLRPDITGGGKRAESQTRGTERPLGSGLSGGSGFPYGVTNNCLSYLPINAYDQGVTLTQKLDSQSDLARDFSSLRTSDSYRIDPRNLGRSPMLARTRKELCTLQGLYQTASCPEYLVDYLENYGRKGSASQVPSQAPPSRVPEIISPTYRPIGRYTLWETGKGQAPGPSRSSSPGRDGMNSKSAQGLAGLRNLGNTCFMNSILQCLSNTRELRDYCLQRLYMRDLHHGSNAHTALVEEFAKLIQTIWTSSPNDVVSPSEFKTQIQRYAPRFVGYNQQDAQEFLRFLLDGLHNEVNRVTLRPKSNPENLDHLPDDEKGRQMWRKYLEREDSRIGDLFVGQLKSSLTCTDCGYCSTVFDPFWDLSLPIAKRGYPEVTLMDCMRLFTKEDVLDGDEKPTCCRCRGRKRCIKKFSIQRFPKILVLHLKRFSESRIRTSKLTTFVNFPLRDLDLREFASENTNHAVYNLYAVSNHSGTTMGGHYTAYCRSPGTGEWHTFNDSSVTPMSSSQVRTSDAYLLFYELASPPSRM

With COC(=O)[C@]12CCC(C)(C)C[C@H]1[C@H]1C(=O)C=C3[C@@]4(C)C=C(C#N)C(=O)C(C)(C)[C@@H]4CC[C@@]3(C)[C@]1(C)CC2 [CDDO-Me] the IC50 was 22.3 µM.

target: T1, USP7 (Homo sapiens, UniProt Q93009); test: gel-based GST-UBA52 cleavage assay and Ub-AMC assay with USP7; supported by CETSA, DARTS and HA-Ub-VS competition in HO8910 lysate; assay type: biochemical; conditions: not given
T1 sequence (Q93009 whole entry): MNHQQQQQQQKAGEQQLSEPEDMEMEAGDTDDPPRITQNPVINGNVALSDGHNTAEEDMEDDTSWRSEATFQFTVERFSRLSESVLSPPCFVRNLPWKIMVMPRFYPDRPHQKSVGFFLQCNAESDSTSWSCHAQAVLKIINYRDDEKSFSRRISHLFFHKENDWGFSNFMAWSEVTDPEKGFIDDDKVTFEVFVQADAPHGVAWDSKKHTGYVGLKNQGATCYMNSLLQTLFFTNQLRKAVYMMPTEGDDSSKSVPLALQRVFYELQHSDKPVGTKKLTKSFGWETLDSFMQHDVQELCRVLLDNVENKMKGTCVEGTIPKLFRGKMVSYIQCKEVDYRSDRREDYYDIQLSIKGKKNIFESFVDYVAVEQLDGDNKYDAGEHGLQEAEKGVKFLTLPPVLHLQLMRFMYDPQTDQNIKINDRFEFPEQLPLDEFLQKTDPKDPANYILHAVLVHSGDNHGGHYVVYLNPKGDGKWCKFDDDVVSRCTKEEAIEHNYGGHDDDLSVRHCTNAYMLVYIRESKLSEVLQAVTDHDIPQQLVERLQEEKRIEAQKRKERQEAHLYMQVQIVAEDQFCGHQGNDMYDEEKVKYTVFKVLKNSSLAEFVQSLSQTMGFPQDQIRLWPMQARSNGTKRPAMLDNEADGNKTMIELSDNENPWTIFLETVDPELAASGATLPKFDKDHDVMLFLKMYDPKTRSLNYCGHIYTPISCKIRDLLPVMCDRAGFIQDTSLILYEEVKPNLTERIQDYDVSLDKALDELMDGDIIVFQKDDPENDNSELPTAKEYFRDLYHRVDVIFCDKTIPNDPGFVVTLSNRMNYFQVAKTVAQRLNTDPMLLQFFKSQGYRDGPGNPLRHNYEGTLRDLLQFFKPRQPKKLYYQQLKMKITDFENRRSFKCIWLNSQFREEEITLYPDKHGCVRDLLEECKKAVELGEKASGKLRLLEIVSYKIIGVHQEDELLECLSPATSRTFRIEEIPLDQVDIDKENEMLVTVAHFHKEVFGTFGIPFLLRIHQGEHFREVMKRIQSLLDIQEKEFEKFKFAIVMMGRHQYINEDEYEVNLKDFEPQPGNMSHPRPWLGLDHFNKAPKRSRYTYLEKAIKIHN

Molecule COC(=O)[C@]12CCC(C)(C)C[C@H]1[C@H]1C(=O)C=C3[C@@]4(C)C=C(C#N)C(=O)C(C)(C)[C@@H]4CC[C@@]3(C)[C@]1(C)CC2 [CDDO-Me] has an IC50 of 14.1 µM.

target: T1, USP7; test: biochemical; design: Ub-AMC hydrolysis by recombinant USP7 (20 nM), 30 min pre-incubation, fluorescence read-out; conditions: read-out: % Inhibition at 50 μM

First: COC(=O)[C@]12CCC(C)(C)C[C@H]1[C@H]1C(=O)C=C3[C@@]4(C)C=C(C#N)C(=O)C(C)(C)[C@@H]4CC[C@@]3(C)[C@]1(C)CC2 [CDDO-Me]
Second: CC(=O)S[C@@H]1CC2=CC(=O)CC[C@]2(C)[C@H]2CC[C@@]3(C)[C@@H](CC[C@@]34CCC(=O)O4)[C@H]12 [Spironolactone]
The inhibition at 50 µM of the first is higher: 91.5% for the first, 36.4% for the second.

CC(C)(C)NCC(O)c1cc(Cl)c(N)c(Cl)c1 (centres unmarked) [Clenbuterol] and CC(C)(C)NCC(O)c1ccc(O)c(CO)c1 (centres unmarked) [Salbutamol sulfate] cannot be ordered by inhibition at 50 µM: < 5% for the first, < 5% for the second.

CC1=C(C)C(=O)C(CCCCC#CCCCC#CCO)=C(C)C1=O [Docebenone] and OCc1cc(C(O)CNCCCCCCOCCCCc2ccccc2)ccc1O (centres unmarked) [Salmeterol] cannot be ordered by inhibition at 50 µM: < 5% for the first, < 5% for the second.

CCC(=O)O[C@@H](O[P@](=O)(CCCCc1ccccc1)CC(=O)N1C[C@H](C2CCCCC2)C[C@H]1C(=O)O)C(C)C [Fosinopril] and CC(C)CN(C[C@@H](O)[C@H](Cc1ccccc1)NC(=O)O[C@H]1CCOC1)S(=O)(=O)c1ccc(N)cc1 [Amprenavir] cannot be ordered by inhibition at 50 µM: < 5% for the first, < 5% for the second.

COc1ccc(C2CNC(=O)C2)cc1OC1CCCC1 (centres unmarked) [Rolipram] and COc1ccccc1O [Guaiacol] cannot be ordered by inhibition at 50 µM: < 5% for the first, < 5% for the second.

COc1cc2c(cc1OC)-c1c/c(=N\c3c(C)cc(C)cc3C)n(C)c(=O)n1CC2 [Trequinsin HCl] and CC[C@]1(O)C[C@H]2CN(CCc3c([nH]c4ccccc34)[C@@](C(=O)OC)(c3cc4c(cc3OC)N(C=O)[C@H]3[C@@](O)(C(=O)OC)[C@H](OC(C)=O)[C@]5(CC)C=CCN6CC[C@]43[C@@H]65)C2)C1 [Vincristine sulfate] cannot be ordered by inhibition at 50 µM: < 5% for the first, < 5% for the second.

Going from CC(=O)O[C@H]1C(=O)[C@@]2(C)[C@H]([C@H](OC(=O)c3ccccc3)[C@]3(O)C[C@H](OC(=O)[C@H](O)[C@@H](NC(=O)c4ccccc4)c4ccccc4)C(C)=C1C3(C)C)[C@]1(OC(C)=O)CO[C@@H]1C[C@@H]2O [Taxol] to COCCOC(=O)C1=C(C)NC(C)=C(C(=O)OC/C=C/c2ccccc2)C1c1cccc([N+](=O)[O-])c1 (centres unmarked) [Cilnidipine], the inhibition at 50 µM falls from 26.9% to < 5%.

CO[C@H]1C[C@@H]2CC[C@@H](C)[C@@](O)(O2)C(=O)C(=O)N2CCCC[C@H]2C(=O)O[C@H]([C@H](C)C[C@@H]2CC[C@@H](O)[C@H](OC)C2)CC(=O)[C@H](C)/C=C(\C)[C@@H](O)[C@@H](OC)C(=O)[C@H](C)C[C@H](C)/C=C/C=C/C=C/1C [Rapamycin] and CC[C@H]1OC(=O)[C@H](C)[C@@H](O[C@H]2C[C@@](C)(OC)[C@@H](O)[C@H](C)O2)[C@H](C)[C@@H](O[C@@H]2O[C@H](C)C[C@H](N(C)C)[C@H]2O)[C@](C)(OC)C[C@@H](C)C(=O)[C@H](C)[C@@H](O)[C@]1(C)O [Clarithromycin] cannot be ordered by inhibition at 50 µM: < 5% for the first, < 5% for the second.

CN[C@@H]1[C@H](O[C@H]2[C@H](O[C@H]3[C@H](O)[C@@H](O)[C@H](N=C(N)N)[C@@H](O)[C@@H]3N=C(N)N)O[C@@H](C)[C@]2(O)C=O)O[C@@H](CO)[C@H](O)[C@H]1O [Streptomycin sulfate] and C[C@H]1O[C@@H](n2cc(F)c(=O)[nH]c2=O)[C@H](O)[C@@H]1O [Doxifluridine] cannot be ordered by inhibition at 50 µM: < 5% for the first, < 5% for the second.

Going from c1ccc([C@H]2CN3CCSC3=N2)cc1 [Levamisole HCl] to CN(C)CCCN1c2ccccc2CCc2ccccc21 [Imipramine HCl], the inhibition at 50 µM rises from < 5% to 26.5%.

NS(=O)(=O)Cc1noc2ccccc12 [Zonisamide] and C[C@@](Cc1ccc(O)c(O)c1)(NN)C(=O)O [Carbidopa] cannot be ordered by inhibition at 50 µM: < 5% for the first, < 5% for the second.

CN(C)/N=N/c1[nH]cnc1C(N)=O [Dacarbazine] and CN/C(=N\CCSCc1nc[nH]c1C)NC#N [Cimetidine] cannot be ordered by inhibition at 50 µM: < 5% for the first, < 5% for the second.

COc1ccc(C(=O)NCc2cccnc2)cc1C(=O)NCc1cccnc1 [Picotamide] and C#Cc1cccc(Nc2ncnc3cc(OCCOC)c(OCCOC)cc23)c1 [Erlotinib] cannot be ordered by inhibition at 50 µM: < 5% for the first, < 5% for the second.

C[N+](C)(C)CCCCCCCCCC[N+](C)(C)C [Decamethonium 2Br] and CCN(CC)CCNC(=O)c1cc(Cl)c(N)cc1OC [Metoclopramide HCl] cannot be ordered by inhibition at 50 µM: < 5% for the first, < 5% for the second.

CO[C@@H]1[C@H](OC(=O)/C=C/C=C/C=C/C=C/C(=O)O)CC[C@]2(CO2)[C@H]1[C@@]1(C)O[C@@H]1CC=C(C)C [Fumagillin] and CN1C[C@@H](NS(=O)(=O)N(C)C)C[C@@H]2c3cccc4c3c(cn4C)C[C@H]21 [Mesulergine HCl] cannot be ordered by inhibition at 50 µM: < 5% for the first, < 5% for the second.

O=P(O)(O)C(O)(Cn1ccnc1)P(=O)(O)O [Zoledronic acid] and CC(C)NCC(O)c1ccc(N)c(C#N)c1 (centres unmarked) [Cimaterol] cannot be ordered by inhibition at 50 µM: < 5% for the first, < 5% for the second.

With O=C1NCN(c2ccccc2)C12CCN(CCCC(c1ccc(F)cc1)c1ccc(F)cc1)CC2 [Fluspirilene] the inhibition at 50 µM was < 5%.
